# Experimental data reported in US20250170122A1, “CERTAIN CHEMICAL ENTITIES, COMPOSITIONS AND METHODS” (Intellikine LLC, priority 2009, published 2025).
# “Also recorded” adds a separate entry of the source.
# What was measured:
# [1] = test system: adjuvant induced arthritis model; test: Adjuvant induced arthritis assay; assay type: in vivo
# Protocol: Isoflurane-anesthetized Lewis rats (200-250 g) were implanted with an intrathecal (IT) catheter. After a 6 d recovery period, all animals except those that appeared to have sensory or motor abnormalities (fewer than 5% of the total number) were used for experiments. For IT administration, 10 μl of drug or saline followed by 10 μl of isotonic saline was injected through the catheter.
# Lewis rats were immunized at the base of the tail with 0.1 ml of complete Freund's adjuvant (CFA) on day 0 several days after catheter implantation (n=6/group). Drug (e.g. one or more compounds of the present invention or vehicle) treatment was generally started on day 8 and continued daily until day 20. Clinical signs of arthritis generally begin on day 10, and paw swelling was determined every second day by water displacement plethysmometry.
# basophilic granulocytes = test: Basotest assay; assay type: cell-based; settings: heparinized whole blood; dust mite or grass extract
# Protocol: The baseotest assay is performed using Orpegen Pharma Basotest reagent kit. Heparinized whole blood is pre-incubated with test compound or solvent at 37° C. for 20 min. Blood is then incubated with assay kit stimulation buffer (to prime cells for response) followed by allergen (dust mite extract or grass extract) for 20 min. The degranulation process is stopped by incubating the blood samples on ice. The cells are then labeled with anti-IgE-PE to detect basophilic granulocytes, and anti-gp53-FITC to detect gp53 (a glycoprotein expressed on activated basophils). After staining red blood cells are lysed by addition of Lysing Solution. Cells are washed, and analyzed by flow cytometry.
# [2] = test system: established type II collagen induced arthritis; test: Rat established type II collagen induced arthritis assay; assay type: in vivo; settings: oral
# Protocol: In order to examine the dose responsive efficacy of the compounds of the present invention in inhibiting the inflammation, cartilage destruction and bone resorption of 10 day established type II collagen induced arthritis in rats, compounds were administered orally daily or twice daily for 6 days.
# Female Lewis rats were anesthetized and given collagen injections prepared and administered as described previously on day 0. On day 6, animals were anesthetized and given a second collagen injection. Caliper measurements of normal (pre-disease) right and left ankle joints were performed on day 9. On days 10-11, arthritis typically occurred and rats were randomized into treatment groups. Randomization was performed after ankle joint swelling was obviously established and there was good evidence of bilateral disease.
# After an animal was selected for enrollment in the study, treatment was initiated by the oral route. Animals were given vehicle, control (Enbrel) or compound doses, twice daily or once daily (BID or QD respectively). Dosing was administered on days 1-6 using a volume of 2.5 ml/kg (BID) or 5 ml/kg (QD) for oral solutions. Rats were weighed on days 1-7 following establishment of arthritis and caliper measurements f ankles taken every day. Final body weights were taken on day 7 and animals were euthanized.
# [3] = test system: collagen induced developing arthritis model; test: Rat developing type II collagen induced arthritis assay; assay type: in vivo; settings: for increase in ankle diameter over time: dose not stated
# Protocol: In order to study the effects of the compounds of the present invention on the autoimmune disease arthritis, a collagen induced developing arthritis model was used. Female Lewis rats were given collagen injections at day 0. Bovine type II collagen was prepared as a 4 mg/ml solution in 0.01 N acetic acid. Equal volumes of collagen and Freund's incomplete adjuvant were emulsified by hand mixing until a bead of the emulsified material held its form in water. Each rodent received a 300 μl injection of the mixture at each injection time spread over three subcutaneous sites on the back.
# Oral compound administration began on day 0 and continued through day 16 with vehicle (5% NMP, 85% PEG 400, 10% Solutol) or compounds of the present invention in vehicle or control (e.g. methotrexate) at 12 hour intervals daily. Rats were weighed on days 0, 3, 6, 9-17 and caliper measurements of ankles taken on days 9-17. Final body weights were taken, and then the animals were euthanized on day 17. After euthanization, blood was drawn and hind paws and knees were removed. Blood was further processed for pharmacokinetics experiments as well as an anti-type II collagen antibody ELISA assay. Hind paws were weighed and then with the knees preserved in 10% formalin. The paws and knees were subsequently processed for microcopy. Livers, spleen and thymus were also weighed. Sciatic nerves were prepared for histopathology.
# Knee and ankle joints were fixed for 1-2 days and decalcified for 4-5 days. Ankle joints were cut in half longitudinally, knees were cut in half along the frontal plane. Joints were then processed, embedded, sectioned and stained with toluidine blue. Scoring of the joints was done according to the following criteria:
# Percent inhibition of paw weight and AUC was calculated using the following formula:
# % Inhibition=A−B/A×100 • A=Mean Disease Control—Mean Normal • B=Mean Treated—Mean Normal
# [4] = test system: p110δ or p110γ relative to p110α, p110β, DNAPK and/or mTor
# Protocol: IC50 values are measured using either a standard TLC assay for lipid kinase activity (described below) or a high-throughput membrane capture assay. Kinase reactions are performed by preparing a reaction mixture containing kinase, inhibitor (2% DMSO final concentration), buffer (25 mM HEPES, pH 7.4, 10 mM MgCl2), and freshly sonicated phosphatidylinositol (100 μg/ml). Reactions are initiated by the addition of ATP containing 10 μCi of γ-32P-ATP to a final concentration 10 or 100 μM and allowed to proceed for 5 minutes at room temperature. For TLC analysis, reactions are then terminated by the addition of 105 μl 1N HCl followed by 160 μl CHCl3:MeOH (1:1). The biphasic mixture is vortexed, briefly centrifuged, and the organic phase is transferred to a new tube using a gel loading pipette tip precoated with CHCl3. This extract is spotted on TLC plates and developed for 3-4 hours in a 65:35 solution of n-propanol:1 M acetic acid. The TLC plates are then dried, exposed to a phosphorimager screen (Storm, Amersham), and quantitated.
# Briefly, the assay is a time resolved FRET assay that indirectly measures PIP3 product formed by the activity of a PI3-K. The kinase reaction is performed in a microtitre plate (e.g., a 384 well microtitre plate). The total reaction volume is approximately 20 ul per well. In the first step, each well receives 2 ul of test compound in 20% dimethylsulphoxide resulting in a 2% DMSO final concentration. Next, approximately 14.5 ul of a kinase/PIP2 mixture (diluted in 1× reaction buffer) is added per well for a final concentration of 0.25-0.3 ug/ml kinase and 10 uM PIP2. […] To start the reaction, 3.5 ul of ATP (diluted in 1× reaction buffer) is added per well for a final concentration of 10 uM ATP. The plate is sealed and incubated for 1 hour at room temperature. The reaction is stopped by adding 5 ul of Stop Solution per well and then 5 ul of Detection Mix is added per well. The plate is sealed, incubated for 1 hour at room temperature, and then read on an appropriate plate reader. Data is analyzed and IC50s are generated using GraphPad Prism 5.
# DNA-PK can be purchased from Promega and assayed using the DNA-PK Assay System (Promega) according to the manufacturer's instructions.
# The cross-activity or lack thereof of one or more compounds of the present invention against mTor can be measured according to any procedures known in the art or methods disclosed below. The compounds described herein can be tested against recombinant mTOR (Invitrogen) in an assay containing 50 mM HEPES, pH 7.5, 1 mM EGTA, 10 mM MgCl2, 2.5 mM, 0.01% Tween, 10 μM ATP (2.5 μCi of μ-32P-ATP), and 3 μg/mL BSA. Rat recombinant PHAS-¼EBP1 (Calbiochem; 2 mg/mL) is used as a substrate. Reactions are terminated by spotting onto nitrocellulose, which is washed with 1 M NaCl/1% phosphoric acid (approximately 6 times, 5-10 minutes each). Sheets are dried and the transferred radioactivity quantitated by phosphorimaging.
# Other kits or systems for assaying mTOR activity are commercially available. For instance, one can use Invitrogen's LanthaScreen™ Kinase assay to test the inhibitors of mTOR disclosed herein. This assay is a time resolved FRET platform that measures the phosphorylation of GFP labeled 4EBP1 by mTOR kinase. The kinase reaction is performed in a white 384 well microtitre plate. The total reaction volume is 20 ul per well and the reaction buffer composition is 50 mM HEPES pH7.5, 0.01% Polysorbate 20, 1 mM EGTA, 10 mM MnCl2, and 2 mM DTT.
# [5] = test system: LPS-induced lung inflammation model; test: LPS-induced lung inflammation assay; assay type: in vivo, rats; settings: oral; bronchoalveolar lavage 6 h after intranasal LPS
# Protocol: To perform the LPS-induced lung inflammation assay, compounds were dosed orally. A group was dosed with vehicle only and dexamethasone (5 mg/kg) was used in another group as positive control. Pulmonary inflammation was determined 6 h after intranasal instillation of LPS (10 μg). The following parameters were evaluated: total number of leukocytes and number of neutrophils in bronchoalveolar lavage (BAL).
# [6] = test system: OVA-induced allergic lung inflammation model; test: Ovalbumin-induced lung inflammation assay; assay type: in vivo, rats; settings: oral; bronchoalveolar lavage after 4 daily ovalbumin challenges
# Protocol: In the ovalbumin-induced lung inflammation assay, compounds were dosed orally. A group was dosed with vehicle only and dexamethasone (5 mg/kg) was used in another group as positive control. Pulmonary inflammation was determined 4 days after 4 consecutive daily intranasal instillation of ovalbumin. Compounds were given by gavage 30 min before each challenge (4 challenges) at the indicated doses. The following parameters were evaluated: Total number of leukocytes and number of eosinophils in bronchoalveolar lavage (BAL).
Structure (SMILES),selectivity ratio [4],also measured
CC(=O)Nc1nc2ccc(-c3nn(Cc4cc5cccc(C)c5c(=O)n4-c4ccccc4C)c4ncnc(N)c34)cc2s1 [Compound 53],,"average paw volume increase ([1]; rat, in vivo): dose dependent reduction in the average paw volume increase; toxicity or other adverse reaction as measured by weight loss ([1]; rat, in vivo): does not exhibit toxicity or other adverse reaction; inhibition of allergen induced activation of basophilic granulocytes, active range (basophilic granulocytes): sub micromolar range; mean ankle diameter increase over time ([2]; once daily dosage): significant reduction in mean ankle diameter increase over time; mean ankle diameter increase over time ([2]; twice daily dosage): significant reduction in mean ankle diameter increase over time; ankle histopathology, all categories ([3]; 60 mg/kg): statistically significant reduction in all categories of ankle histopathology; serum anti-type II collagen levels ([3]; 10, 20, and 60 mg/kg dosage levels): reducing the level of anti-type II collagen antibodies; also recorded: significant reduction; mean ankle diameter increase over time ([3]; 10, 30, and 60 mg/kg at 12 hour intervals, oral, relative to vehicle or methotrexate control): significant reduction in arthritis induced ankle diameter increase over time; ankle histopathology (inflammation, pannus, cartilage damage, bone resorption) ([3]; developing arthritis, oral): improving ankle histopathology; also recorded: significant reduction in one or more categories; knee histopathology ([3]; developing arthritis, oral): dose dependent reduction in knee histopathology"
C[C@H](Nc1ncnc2[nH]cnc12)c1cc2cccc(Cl)c2c(=O)n1-c1cccc(F)c1 [Compound 328],≥ 3,
C[C@H](Nc1ncnc2[nH]cnc12)c1cc2cccc(Cl)c2c(=O)n1-c1ccc(F)cc1 [Compound 329],≥ 3,
C[C@H](Nc1ncnc2[nH]cnc12)c1cc2cccc(F)c2c(=O)n1-c1ccccc1 [Compound 330],≥ 3,
C[C@H](Nc1ncnc2[nH]cnc12)c1cc2cccc(F)c2c(=O)n1-c1cccc(F)c1 [Compound 331],≥ 3,
C[C@H](Nc1ncnc2[nH]cnc12)c1cc2cccc(F)c2c(=O)n1-c1ccc(F)cc1 [Compound 332],≥ 3,
C[C@H](Nc1ncnc2[nH]c(Cl)nc12)c1cc2cccc(Cl)c2c(=O)n1-c1ccccc1 [Compound 333],≥ 3,
Cc1ccccc1-n1c(Cn2nc(-c3cn[nH]c3)c3c(N)ncnc32)cc2cccc(Cl)c2c1=O [Compound 336],≥ 3,
Nc1ncnc2c1c(-c1cn[nH]c1)nn2Cc1cc2cccc(Cl)c2c(=O)n1-c1ccccc1F [Compound 337],≥ 3,
Nc1ncnc2c1c(-c1cn[nH]c1)nn2Cc1cc2cccc(Cl)c2c(=O)n1-c1ccccc1 [Compound 338],≥ 3,
Nc1ncnc2c1c(-c1cn[nH]c1)nn2Cc1cc2cccc(Cl)c2c(=O)n1-c1cccc(F)c1 [Compound 339],≥ 3,
C[C@H](Nc1ncnc2c1ncn2C)c1cc2cccc(Cl)c2c(=O)n1-c1ccccc1 [Compound 340],≥ 3,
C[C@H](Nc1ncnc2sccc12)c1cc2cccc(Cl)c2c(=O)n1-c1ccccc1 [Compound 343],≥ 3,
C[C@H](Nc1ncnc2ccsc12)c1cc2cccc(Cl)c2c(=O)n1-c1ccccc1 [Compound 344],≥ 3,
C[C@H](Nc1nc(N)ncc1C(F)(F)F)c1cc2cccc(Cl)c2c(=O)n1-c1ccccc1 [Compound 346],≥ 3,
[2H]c1nc2c(N[C@@H](C)c3cc4cccc(C)c4c(=O)n3-c3ccccc3)ncnc2[nH]1 [Compound 349],≥ 3,
[2H]c1nc2c(N[C@@H](C)c3cc4cccc(Cl)c4c(=O)n3C3CC3)ncnc2[nH]1 [Compound 350],≥ 3,
Cc1csc2ncnc(N[C@@H](C)c3cc4cccc(Cl)c4c(=O)n3-c3ccccc3)c12 [Compound 352],≥ 3,
CNc1ncc(C(F)(F)F)c(N[C@@H](C)c2cc3cccc(Cl)c3c(=O)n2-c2ccccc2)n1 [Compound 354],≥ 3,
C[C@H](Nc1ncnc2[nH]cnc12)c1cc2ncccc2c(=O)n1-c1ccccc1 [Compound 357],≥ 3,
Cc1cccc2cc([C@H](C)Nc3ncnc4[nH]cnc34)n(-c3ccccc3)c(=O)c12 [compound 196],,increase in ankle diameter over time [3]: reducing the increase in ankle diameter over time
"Cc1cccc2cc([C@H](C)Nc3ncnc4[nH]cnc34)n(C3CC3)c(=O)c12 [compound 200, (S)-3-(1-(9H-purin-6-ylamino)ethyl)-2-cyclopropyl-8-methylisoquinolin-1(2H)-one]",,increase in ankle diameter over time [3]: reducing the increase in ankle diameter over time
"C[C@H](Nc1ncnc2[nH]cnc12)c1cc2cccc(Cl)c2c(=O)n1C1CC1 [compound 270, (S)-3-(1-(9H-purin-6-ylamino)ethyl)-2-cyclopropyl-8-chloro-isoquinolin-1(2H)-one]",,increase in ankle diameter over time [3]: reducing the increase in ankle diameter over time
"C[C@H](Nc1ncnc2[nH]cnc12)c1cc2cccc(Cl)c2c(=O)n1-c1ccccc1 [compound 292, (S)-3-(1-(9H-purin-6-ylamino)ethyl)-8-chloro-2-phenylisoquinoline-1(2H)-one]",,LPS-induced total leukocyte neutrophil influx [5]: inhibiting LPS-induced total leukocyte neutrophil influx; eosinophil influx [6]: inhibiting eosinophil influx; increase in ankle diameter over time ([1]; dose not stated): reducing the increase in ankle diameter over time; increase in ankle diameter over time [3]: reducing the increase in ankle diameter over time
